The supplement of paper PMC11628255, “Interference of metal ions on the bioluminescent signal of firefly, Renilla, and NanoLuc luciferases in high-throughput screening assays” (Frontiers in Chemistry, 2024)
± gives the standard deviation of the averaged measurements.

Key:
Assay in all cases: normalised percent inhibition of luminescence (vs positive and negative controls); higher = stronger inhibition
[1] = tested on: NanoLuc luciferase (NLuc)
Experimental: (§1)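 Concentration-response (>=11 concentrations) of metal salts on purified FLuc, NLuc or RLuc luminescence in screening (SC) or 100 mM HEPES (H) buffer; salt pre-incubated with enzyme 10 min at RT, read 10 min after substrate. Normalised percent inhibition vs plate positive (PTC-124, isradipine, BTS) and DMSO negative controls; triplicate wells.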

[2] = tested on: Renilla luciferase (RLuc)
Experimental: as §1

[3] = tested on: firefly luciferase (FLuc)
Experimental: as §1

O=[N+]([O-])[O-].[Ag+] [silver nitrate]
normalised percent inhibition [%]
Conditions	[1]	[2]	[3]
metal salt concentration 1.56 nM, screening conditions buffer	–	–	-3.5 ± 6
metal salt concentration 3.13 nM, screening conditions buffer	–	–	8.07 ± 5.3
metal salt concentration 6.25 nM, screening conditions buffer	–	–	-11.6 ± 7.4
metal salt concentration 12.5 nM, screening conditions buffer	–	–	2.67 ± 4.2
metal salt concentration 25 nM, screening conditions buffer	–	–	-5.14 ± 3.2
metal salt concentration 50 nM, screening conditions buffer	–	–	1.37 ± 6.6
metal salt concentration 0.0001 mM, 100 mM HEPES buffer	1.65 ± 1.5	2.89 ± 12	98 ± 2.2
metal salt concentration 0.0001 mM, screening conditions buffer	–	–	0.486 ± 5.2
metal salt concentration 0.00025 mM, 100 mM HEPES buffer	-1.44 ± 2.1	-2.96 ± 23	100.3 ± 0.19
metal salt concentration 0.00025 mM, screening conditions buffer	–	–	54.3 ± 6.3
metal salt concentration 0.0005 mM, 100 mM HEPES buffer	-1.42 ± 4.4	-1.85 ± 16	99.84 ± 0.56
metal salt concentration 0.0005 mM, screening conditions buffer	–	–	100.1 ± 0.16
metal salt concentration 0.001 mM, 100 mM HEPES buffer	2.97 ± 6.6	-11.8 ± 14	100.3 ± 0.19
metal salt concentration 0.001 mM, screening conditions buffer	–	–	100.19 ± 0.055
metal salt concentration 0.002 mM, screening conditions buffer	20.8 ± 3.6	10.7 ± 8.6	100.6 ± 0.14
metal salt concentration 0.005 mM, screening conditions buffer	80.1 ± 3.5	8.28 ± 9.9	100.7 ± 0.58
metal salt concentration 0.01 mM, 100 mM HEPES buffer	–	-3.09 ± 29	–
metal salt concentration 0.01 mM, screening conditions buffer	88 ± 46	13 ± 3.1	100.4 ± 0.49
metal salt concentration 0.02 mM, 100 mM HEPES buffer	–	-4.38 ± 18	–
metal salt concentration 0.02 mM, screening conditions buffer	107 ± 28	14.2 ± 12	100.7 ± 0.22
metal salt concentration 0.025 mM, 100 mM HEPES buffer	99.59 ± 0.3	84.8 ± 8.2	100.4 ± 0.49
metal salt concentration 0.04 mM, 100 mM HEPES buffer	–	47.3 ± 12	–
metal salt concentration 0.05 mM, 100 mM HEPES buffer	51.4 ± 54	104 ± 3.7	100.3 ± 0.68
metal salt concentration 0.05 mM, screening conditions buffer	118 ± 17	38.8 ± 7.9	99.8 ± 1.4
metal salt concentration 0.1 mM, 100 mM HEPES buffer	100.8 ± 0.22	107 ± 1.2	100.6 ± 0.19
metal salt concentration 0.1 mM, screening conditions buffer	119 ± 17	81.2 ± 3.3	–
metal salt concentration 0.2 mM, screening conditions buffer	133.6 ± 0.46	101 ± 3.2	–
metal salt concentration 0.5 mM, 100 mM HEPES buffer	101.7 ± 0.27	106 ± 1.4	100 ± 0.68
metal salt concentration 0.5 mM, screening conditions buffer	119 ± 16	105.9 ± 0.6	–
metal salt concentration 1 mM, 100 mM HEPES buffer	101.7 ± 0.68	106 ± 1.3	99.8 ± 1.1
metal salt concentration 1 mM, screening conditions buffer	120 ± 16	105.9 ± 0.36	–
metal salt concentration 2.5 mM, 100 mM HEPES buffer	101.97 ± 0.092	106.7 ± 0.43	100.4 ± 0.49
metal salt concentration 2.5 mM, screening conditions buffer	134.8 ± 0.48	106.2 ± 0.36	–
metal salt concentration 5 mM, 100 mM HEPES buffer	102 ± 0.14	106 ± 1.5	100.5 ± 0.56
metal salt concentration 5 mM, screening conditions buffer	135.3 ± 0.097	106.1 ± 0.41	–

O=[N+]([O-])[O-].O=[N+]([O-])[O-].[Cd+2] [cadmium nitrate]
normalised percent inhibition [%]
Conditions	[1]	[2]	[3]
metal salt concentration 0.0001 mM, 100 mM HEPES buffer	-0.809 ± 1.5	-40.7 ± 15	-14 ± 17
metal salt concentration 0.00025 mM, 100 mM HEPES buffer	-0.623 ± 3.6	-15.8 ± 19	-6.16 ± 21
metal salt concentration 0.0005 mM, 100 mM HEPES buffer	-3.63 ± 3.5	-51.3 ± 24	6.48 ± 9.1
metal salt concentration 0.001 mM, 100 mM HEPES buffer	-0.485 ± 1.9	-29.6 ± 6	33.8 ± 4.1
metal salt concentration 0.002 mM, screening conditions buffer	4.83 ± 4.2	-8.95 ± 8.6	–
metal salt concentration 0.005 mM, screening conditions buffer	6.73 ± 6	-5.21 ± 8.8	–
metal salt concentration 0.01 mM, screening conditions buffer	0.612 ± 1.6	-13.5 ± 18	–
metal salt concentration 0.02 mM, screening conditions buffer	-0.781 ± 5.1	-3.71 ± 6.7	–
metal salt concentration 0.025 mM, 100 mM HEPES buffer	-1.09 ± 2.9	-16 ± 26	95.9 ± 3.9
metal salt concentration 0.05 mM, 100 mM HEPES buffer	4.79 ± 3.8	-20.9 ± 10	99.08 ± 0.82
metal salt concentration 0.05 mM, screening conditions buffer	17.7 ± 10	-1.96 ± 5.9	–
metal salt concentration 0.1 mM, 100 mM HEPES buffer	13 ± 6.7	18 ± 7.5	99.41 ± 0.19
metal salt concentration 0.1 mM, screening conditions buffer	7.22 ± 2.6	-1.09 ± 6.9	–
metal salt concentration 0.2 mM, screening conditions buffer	20.6 ± 6.8	-5.06 ± 7.3	–
metal salt concentration 0.5 mM, 100 mM HEPES buffer	18.6 ± 2.3	47.1 ± 20	100.3 ± 0.68
metal salt concentration 0.5 mM, screening conditions buffer	30.7 ± 4.9	39.6 ± 6.7	–
metal salt concentration 1 mM, 100 mM HEPES buffer	24.8 ± 3	95.1 ± 2.6	100.3 ± 0.49
metal salt concentration 1 mM, screening conditions buffer	56.2 ± 9.1	68.6 ± 12	–
metal salt concentration 2.5 mM, 100 mM HEPES buffer	20.6 ± 2.7	104 ± 1.3	100.3 ± 0.68
metal salt concentration 2.5 mM, screening conditions buffer	93.1 ± 3	79.4 ± 4.4	–
metal salt concentration 5 mM, 100 mM HEPES buffer	26.5 ± 5.5	105 ± 2.7	99.3 ± 0.68
metal salt concentration 5 mM, screening conditions buffer	113 ± 4.1	93.4 ± 2.4	–

CC#N.CC#N.CC#N.CC#N.F[B-](F)(F)F.[Cu+] [tetrakis(acetonitrile)copper(I) tetrafluoroborate]
normalised percent inhibition [%]
Conditions	[1]	[2]	[3]
metal salt concentration 15.6 nM, 100 mM HEPES buffer	–	–	31.6 ± 5.6
metal salt concentration 31.25 nM, 100 mM HEPES buffer	–	–	19.4 ± 5.8
metal salt concentration 62.5 nM, 100 mM HEPES buffer	–	–	94.7 ± 2.4
metal salt concentration 0.0001 mM, 100 mM HEPES buffer	2.08 ± 2.5	-13.8 ± 1.9	98.82 ± 0.68
metal salt concentration 0.000125 mM, 100 mM HEPES buffer	–	–	99.64 ± 0.61
metal salt concentration 0.00025 mM, 100 mM HEPES buffer	-0.342 ± 1.6	12.4 ± 25	99.92 ± 0.95
metal salt concentration 0.0005 mM, 100 mM HEPES buffer	3.53 ± 1.5	-2.77 ± 18	100.6 ± 0.27
metal salt concentration 0.0005 mM, screening conditions buffer	–	–	19.7 ± 6.5
metal salt concentration 0.001 mM, 100 mM HEPES buffer	4.37 ± 2.7	-10.8 ± 24	100.1 ± 0.47
metal salt concentration 0.001 mM, screening conditions buffer	–	–	-12.4 ± 12
metal salt concentration 0.002 mM, screening conditions buffer	0.453 ± 3.1	12.9 ± 12	6.86 ± 16
metal salt concentration 0.005 mM, screening conditions buffer	0.553 ± 5.7	16.7 ± 4.2	13.5 ± 18
metal salt concentration 0.01 mM, screening conditions buffer	1.88 ± 5.3	11.3 ± 1.8	8.64 ± 11
metal salt concentration 0.02 mM, screening conditions buffer	9.53 ± 10	2.75 ± 5	7.18 ± 12
metal salt concentration 0.025 mM, 100 mM HEPES buffer	5.84 ± 3.1	75.8 ± 10	100.5 ± 0.33
metal salt concentration 0.025 mM, screening conditions buffer	–	–	20.1 ± 6.7
metal salt concentration 0.05 mM, 100 mM HEPES buffer	40.1 ± 16	102 ± 4	100.3 ± 0.32
metal salt concentration 0.05 mM, screening conditions buffer	91.9 ± 19	13.4 ± 7.8	3.96 ± 21
metal salt concentration 0.1 mM, 100 mM HEPES buffer	92.9 ± 4.2	105 ± 1.1	100.5 ± 0.28
metal salt concentration 0.1 mM, screening conditions buffer	158 ± 2.2	9.12 ± 4.9	24.1 ± 11
metal salt concentration 0.2 mM, screening conditions buffer	158.7 ± 0.69	3.41 ± 2.5	31.5 ± 16
metal salt concentration 0.25 mM, 100 mM HEPES buffer	–	–	100.3 ± 0.23
metal salt concentration 0.5 mM, 100 mM HEPES buffer	101.8 ± 0.16	106 ± 2.8	100.5 ± 0.16
metal salt concentration 0.5 mM, screening conditions buffer	160 ± 0.71	106.2 ± 0.25	56.9 ± 11
metal salt concentration 1 mM, 100 mM HEPES buffer	101.8 ± 0.24	107.5 ± 0.97	100.3 ± 0.63
metal salt concentration 1 mM, screening conditions buffer	159.9 ± 0.92	106.7 ± 0.13	99.7 ± 1.5
metal salt concentration 2.5 mM, 100 mM HEPES buffer	101.9 ± 0.13	106 ± 1.7	100.5 ± 0.31
metal salt concentration 2.5 mM, screening conditions buffer	161.2 ± 0.41	106.6 ± 0.25	100.3 ± 0.32
metal salt concentration 5 mM, 100 mM HEPES buffer	101.9 ± 0.11	107 ± 1.7	100.3 ± 0.16
metal salt concentration 5 mM, screening conditions buffer	161.65 ± 0.13	106.5 ± 0.51	100.4 ± 0.4
metal salt concentration 10 mM, screening conditions buffer	–	–	100.1 ± 0.14
metal salt concentration 20 mM, screening conditions buffer	–	–	100.2 ± 0.38
